According to patent US20210338648A1, “METHODS AND COMPOSITIONS FOR REDUCING SERUM URIC ACID” (AstraZeneca AB, priority 2018, published 2021):
“Also recorded” adds a separate entry of the source.

Tests used:
[1] = Phase 2 crossover study: urinary excretion of uric acid (uUA); format: in vivo, human
Source text: Thirty-six asymptomatic hyperuricemic patients aged 18 to 65 years (inclusive) were enrolled into this study at two study centers. Twenty-four patients were enrolled and completed the study. Due to inadequate urine sampling, 12 additional patients were included to ensure an adequate sample size (at least 20 evaluable patients) to evaluate the effects of intensive UA lowering with verinurad, febuxostat and dapagliflozin on urinary excretion of UA. With 24 completers available during the interim analysis, this will provide for a total sample size of 36 evaluable patients. Before any study specific assessments were performed, potential patients provided informed consent. Each patient underwent the below mentioned visits: • A Screening period of maximum 28 days; • Two treatment periods during which patients were resident in the Clinical Unit from Day −2 to Day 1 and from Day 6 to Day 8; and • A Follow-up Visit within 14 to 28 days after the first administration of Investigational Medicinal Product (IMP) in Treatment Period 2. […] Treatment Period 1 and Treatment Period 2 were separated by a washout period of 7 to 21 days. • 1.

[2] = Phase 2 crossover study: serum uric acid (sUA) after 7 days of treatment; format: in vivo, human; conditions: dapagliflozin added to verinurad + febuxostat; D7
Source text: (§1) Thirty-six asymptomatic hyperuricemic patients aged 18 to 65 years (inclusive) were enrolled into this study at two study centers. Twenty-four patients were enrolled and completed the study. Due to inadequate urine sampling, 12 additional patients were included to ensure an adequate sample size (at least 20 evaluable patients) to evaluate the effects of intensive UA lowering with verinurad, febuxostat and dapagliflozin on urinary excretion of UA. With 24 completers available during the interim analysis, this will provide for a total sample size of 36 evaluable patients.
• 1. […] At screening: One sUA assessment. […] Area under plasma concentration time curve over a dosing interval (24 hours) (AUCτ) assessment for verinurad and its main metabolites, febuxostat, and dapagliflozin [Time Frame: On Treatment Period 1 and 2: Day 7 (Pre-dose and 15 minutes, 30 minutes, 1 hour, 1.5, 2, 3, 4, 8, 12 and 24 hours post-dose)] • To assess AUCT after administration of single oral fixed dose of verinurad+febuxostat+dapagliflozin/placebo • 3. […]

[3] = Phase 2 crossover study: safety and tolerability (adverse events, serum creatinine, serum sodium); format: in vivo, human; conditions: Grp1 vs Grp2
Source text: as §1, with “patients. […] At screening: One sUA assessment. […] On Treatment Period 1 and 2: […] On Treatment Period 1 and 2: […] Systolic blood pressure [SBP] […] Diastolic blood pressure [DBP]” for “patients.”

[4] = co-administration, Day 7
Experimental: This study was a randomized, placebo controlled, double-blind, 2-way crossover study conducted on asymptomatic hyperuricemic patients.
On Day −2 of Treatment period 1, patients were randomized (1:1) to 1 of 2 treatment sequences (AB or BA). […] On Day 1, after all dosing and all assessments were performed, patients received instruction to administer the IMP at home once daily in the morning from Day 2 to Day 6 and the IMP dispensed for home dosing. Patients returned to the Clinical Unit on Day 6 and were residential in the Clinical Unit from Day 6 to Day 8.

CCOc1ccc(Cc2cc([C@@H]3O[C@H](CO)[C@@H](O)[C@H](O)[C@H]3O)ccc2Cl)cc1 [dapagliflozin]
peak uUA excretion (result in words) ([1]; dapagliflozin 10 mg/day added to verinurad 9 mg/day + febuxostat 80 mg/day, D7): no increase; also recorded: without an increase in uUA excretion | total 24 h uUA excretion (result in words) ([1]; dapagliflozin added to verinurad + febuxostat vs placebo, 24 h urine, all subjects): no difference | sUA levels (result in words) [2]: significantly reduced; also recorded: additional sUA lowering | serum creatinine (sCr), between-group difference [3]: without an increase in uUA excretion, or changes in sCr | effect on febuxostat pharmacokinetics [4]: did not affect | effect on verinurad pharmacokinetics [4]: did not affect
